Reference: article PMC3745399, “An NO Donor Approach to Neuroprotective and Procognitive Estrogen Therapy Overcomes Loss of NO Synthase Function and Potentially Thrombotic Risk” (PLoS ONE, 2013)

Assays:
ERα = biological target: T1, ERα (Homo sapiens, UniProt P03372); test: ER binding affinity by competitive E2 displacement (ERα)
T1 sequence (P03372 1-595): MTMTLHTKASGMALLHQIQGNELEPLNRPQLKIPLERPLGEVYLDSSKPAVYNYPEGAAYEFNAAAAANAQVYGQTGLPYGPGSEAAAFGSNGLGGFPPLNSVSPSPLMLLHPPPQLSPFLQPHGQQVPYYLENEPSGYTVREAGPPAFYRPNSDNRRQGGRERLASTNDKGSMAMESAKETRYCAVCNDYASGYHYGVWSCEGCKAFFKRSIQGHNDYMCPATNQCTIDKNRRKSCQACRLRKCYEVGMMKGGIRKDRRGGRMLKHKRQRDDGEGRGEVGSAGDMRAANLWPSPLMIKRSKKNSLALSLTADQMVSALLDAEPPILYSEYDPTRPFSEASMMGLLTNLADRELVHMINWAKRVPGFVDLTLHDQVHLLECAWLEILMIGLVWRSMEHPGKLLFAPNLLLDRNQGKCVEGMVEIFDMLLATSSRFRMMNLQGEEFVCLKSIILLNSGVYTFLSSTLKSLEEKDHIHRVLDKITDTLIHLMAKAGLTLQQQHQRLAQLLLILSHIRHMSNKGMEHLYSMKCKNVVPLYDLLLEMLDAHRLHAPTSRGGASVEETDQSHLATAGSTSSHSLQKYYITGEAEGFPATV
Method: ER binding affinity was measured by competitive E2 displacement as previously described.

[1] = test system: primary cortical neurons exposed to OGD; test: Neuroprotection in oxygen glucose deprivation (OGD), MTT; format: cell-based, rat; conditions: for neuroprotection with G15: 100 nM SERM + G15 100 nM (GPR30 antagonist); for neuroprotection with L-NAME: 100 nM SERM + L-NAME 100 µM (NOS antagonist), whether it attenuated neuroprotective activity; for neuroprotection with LY294002: 100 nM SERM + LY294002 10 µM (PI3K inhibitor); for neuroprotection with pertussis toxin: 100 nM SERM + pertussis toxin 100 ng/mL; for neuroprotection (cell survival by MTT): 100 nM, 2 h OGD, 24 h, no blocker, normalized to E2 10 nM (100%) and vehicle (0%)
Method: Primary neuronal cultures were subjected to 2 h OGD with compounds added at the start of OGD and inhibitors added 45 min prior to OGD. Cell survival was measured at 24 h.
Primary cultures of dissociated cortical neurons were prepared as follows; briefly, cortices were dissected from E16-18 Sprague-Dawley rats (Charles River). After removal of meninges, cortices were manually dissociated and plated at a density of 10^6 cells/mL into 96-well plates. Twenty-four hours after plating, cultures were grown in Neurobasal A media supplemented with B27, glutamine and pen/strep, with media changes every 3–4 days. In accordance with published protocols, measured levels of glia in culture after DIV2 are <0.5%. Experiments were performed at DIV 11–12.
The cell media was changed to phenol red-free growing media at least 3 h before OGD. Receptor blockers were added 45 min prior to the start of OGD, and SERMs were added at the start of OGD, with concentrations maintained through media changes. For OGD, the cells were transferred to a hypoxia chamber controlled at 5% CO2 and <1% O2, and growth media was replaced with a physiological salt solution (in mM: NaCl 116, CaCl2 1.8, MgSO4 0.8, KCl 5.4, NaHCO3 14.7, NaHPO4 1, HEPES 10, pH = 7.4). After 2 h OGD, cells were removed from the chamber and growth media was replaced. After 24 h, cell viability was measured by MTT assay using a Dynex MRX ll micro-plate spectrophotometer.

[2] = test system: hippocampal slices from 16-month old male 3×Tg mice; test: LTP in CA1 of hippocampal slices after theta burst stimulation; parameters: species or system mouse; conditions: 3×Tg slices; for enhancement of subsequent theta bursts during LTP induction: 100 nM; for end fEPSP: 100 nM added 30 min prior to TBS, untreated 3×Tg 97.0±6.4%, WT 134.7±10.3%
Method: LTP in the CA1 field of the hippocampus is a well-studied cellular model for learning and memory. […] At 16 months, an advanced age at which Alzheimer's-like neuropathology is well developed in these animals, studies on LTP have not previously been reported. Nevertheless, we observed a robust, reproducible deficit in LTP in these aged transgenic mice, with field excitatory post-synaptic potentials (fEPSP) showing an end fEPSP of 97.0±6.4% of baseline at 45 min post-TBS, compared to 134.7±10.3% observed in the wild type (WT) transgenic background controls (Fig. 3A,B).
Figure 3 Reversal of LTP deficit in aged 3×Tg mice by SERMs is GPR30 dependent. LTP was measured after TBS in the CA1 region of hippocampal sections from 16 month male 3×Tg mice or WT controls. Test compounds (SERMs 100 nM; G15 100 nM) were added 30 min prior to TBS. […] (C) Secondary analysis of theta bursts indicate action both during induction and stabilization of LTP, through a GPR30 dependent mechanism.
All experiments used 16-month old male 3×Tg transgenic or age-matched WT background controls. For electrophysiology, mice were rapidly decapitated, and brains were removed into an ice-cold aCSF solution (in mM: NaCl 124, KCl 3.0, KH2PO4 1.25, NaHCO3 25.7, D-glucose 10, L-ascorbate 2.0, MgSO4 2.5, and CaCl2 3.3) and sectioned on a tissue chopper into 400 µm sections. Slices were transported to a 37°C solution of aCSF, continuously bubbled with 95% O2/5% CO2, and allowed to recover at least 60 min before experimentation. After placement of a stimulation electrode in the Schaffer commissural fibers and recording electrodes with 2 M NaCl solution into the stratum radiatum of the CA1 area, stimulus intensity was set to evoke submaximal fEPSP and continuously monitored at 20 s intervals for at least 15 min to establish a stable baseline. SERMs (100 nM) and G15 (100 nM) were prepared fresh in perfusate and started at least 30 min before LTP induction to reach a new baseline after enhancement of basal synaptic transmission was observed. […] Resulting fEPSP was monitored at 20 s intervals for ∼60 min post TBS.

[3] = format: in vivo; conditions: mouse, ip, 5 mg/kg
Method: All experiments were performed on 6–8 month male C57B1/6 mice (Charles River Laboratory) or eNOS(−/−) animals. Animals were injected (i.p.) at various time points before sacrifice at the doses specified. After euthanasia via CO2, plasma was collected, and cortices and hippocampi were collected after PBS perfusion and stored at −80°C. Tissue samples were weighed and extracted with methanol. Plasma samples were extracted with cold acetonitrile. Quantitative analysis of drug concentrations in plasma and brain used internal standards spiked into plasma and brain homogenates before liquid extraction with acetonitrile or methanol, and separation and measurement was performed with LC-MS/MS tandem mass spectrometry. The supernatant (deproteinized) was analyzed by chemiluminescence with SIEVERS 280i nitric oxide analyzer.
Figure S3: SERM bioavailability in plasma and CNS of WT and eNOS (-/-) mice. […] (n=4).

Row | Structure (SMILES) | IC50 (ERα) [nM] | neuroprotection with G15 [1] | neuroprotection with ICI 182780 ([1]; 100 nM SERM + ICI 182780 100 nM, added 45 min prior to OGD) | neuroprotection with L-NAME [1] | neuroprotection with LY294002 [1] | neuroprotection with pertussis toxin [1] | neuroprotection (cell survival by MTT) [1] | enhancement of subsequent theta bursts during LTP induction [2] | end fEPSP [2] | end fEPSP with G15 ([2]; DMA 100 nM + G15 100 nM) [%] | effect on LTP with ODQ (sGC inhibitor) ([2]; ODQ 10 nM, variable interburst interval, preliminary) | bioavailability in plasma and CNS ([3]; in vivo) | blood brain barrier permeability [3]
1 | O=[N+]([O-])OCCCC1CCN(CCOc2ccc(Oc3c(-c4ccc(O)cc4)sc4cc(O)ccc34)cc2)CC1 [NO-DMA, 3-(1-(2-(4-(6-hydroxy-2-(4-ydroxyphenyl)benzo[b]thiophen-3-yloxy)phenoxy)ethyl)piperidin-4-yl)propyl nitrate] | 21.4 ± 6.7 | blocked the neuroprotective activity | did not block this effect | did not | attenuated neuroprotective activity | blocked the neuroprotective activity | robust neuroprotection identical to DMA | augmented | 144.2±5.2 % of baseline | – | – | – | –
2 | Oc1ccc(-c2sc3cc(O)ccc3c2Oc2ccc(OCCN3CCCCC3)cc2)cc1 [DMA, desmethylarzoxifene] | – | blocked the neuroprotective activity | – | did not | attenuated neuroprotective activity | blocked the neuroprotective activity | robust neuroprotection | augmented | 144.9±8.7 % of baseline | 96.8±7.1 | ODQ blocks effect of DMA on LTP | substantial bioavailability with preferential retention in the hippocampus up to 2 h after administration | substantial blood brain barrier permeability
